Measurements published in patent US20260297092A1, “PYRAZOLOPYRIMIDINE DERIVATIVES AS INHIBITORS OF NLRP3” (Takeda Pharmaceutical Company Limited, priority 2023, published 2026).

What follows are molecules tested on NLRP3 inflammasome (IL-1β production in THP-1 cells) (assay: IL-1β TR-FRET Assay (percentage of inhibition at 300 nM, 6 μM or 10 μM)). Conditions: Homo sapiens, THP-1, 300 nM, LPS priming, ATP activation, read-out: IL-1β inhibitory rate at 300 nM (%).
Type: cell-based, human
Method: The biological activity of the compound of Formula 1 with respect to NLRP3 was determined using the following in vitro method.
IL-1β TR-FRET Assay (reported as percentage of inhibition at 300 nM, 6 μM or 10 μM)
Monocytic THP-1 cells (ATCC: TIB-202) were maintained in accordance with the provider's instructions in RPMI media (Life Technologies, Cat #A10491-01); RPMI was supplemented with 10% heat inactivated fetal bovine serum (Corning, Cat #35-010-CV). The cells were differentiated into macrophages by the addition of 25 ng/mL IFN-γ (PeproTech, Cat #AF-300-02-100UG) for 24 hours at 37° C./5% CO2. Media was exchanged with fresh media with no FBS, and the cells were treated with 50 ng/mL LPS (priming step) (LPS-EK: Invivogen, Cat #tlrl-peklps). The cells were plated at 20,000 cells per well in 384-well flat-bottom cell culture plates (FALCON, Cat #353962) and were incubated for 24 hours at 37° C./5% CO2. Compounds were serially diluted (half log or 5-fold dilutions) with DMSO and were finally diluted with Media with no FBS. The compounds were added to the cells in 384-well plates (added in 1:3) and then the plates were incubated for 30 minutes at 37° C./5% CO2. The NLRP3 inflammasome was activated with the addition of 20 mM ATP (Sigma Cat #A3377-25G) and the cells were incubated for 2 hours at 37° C./5% CO2. At the end of the incubation period, 30 μL supernatant was transferred to another 384-well plate and mixed on a plate shaker for 1 minute. The supernatant was mixed with HTRF Antibody (Human IL1 beta kit, Cisbio, 62HIL1BPEH) in assay plates (Greiner Bio-One, Cat #784075) and the assay plates were incubated in shading box at room temperature for 16-24 hours. HTRF signal was measured by EnVision (Perkinelmer) in accordance with the manufacturer's instructions.
The percentage of inhibition at 300 nM, 6 μM or 10 μM in the IL-1βTR-FRET assay was calculated by the following formula: Percentage of inhibition=[1−(HTRF signaltest−HTRF signalLow)/(HTRF signalHigh−HTRF signalLow)]*100, where HTRF signaltest is the HTRF signal in the well to which test compound is added, HTRF signalLow is the HTRF signal in the well to which 3 μM MCC-950 is added, and the HTRF signalHigh is the HTRF signal in the well to which DMSO is added.

Row | Compound | inhibition at 0.3 µM
1 | CCOc1nc2nn(-c3c(F)cc(C4CC4)cc3C(O)C(F)F)cc2c(=O)[nH]1 (racemic) [Example 177, 2-[4-cyclopropyl-2-(2,2-difluoro-1-hydroxyethyl)-6-fluorophenyl]-6-ethoxy-2,5-dihydro-4H-pyrazolo[3,4-d]pyrimidin-4-one] | 108%
2 | Cc1cc(C2CC2)cc(C)c1-n1cc2c(=O)[nH]c(C3CCCO3)nc2n1 (racemic) [Example 223, 2-(4-cyclopropyl-2,6-dimethylphenyl)-6-(oxolan-2-yl)-2,5-dihydro-4H-pyrazolo[3,4-d]pyrimidin-4-one] | 100%
3 | Cc1cc(C2CC2)cc(C)c1-n1cc2c(=O)[nH]c(C3COCCO3)nc2n1 (racemic) [Example 232, 2-(4-cyclopropyl-2,6-dimethylphenyl)-6-(1,4-dioxan-2-yl)-2,5-dihydro-4H-pyrazolo[3,4-d]pyrimidin-4-one] | 97%
4 | CCOc1nc2nn(-c3c(C)cc(C)cc3F)cc2c(=O)[nH]1 [Example 78, 6-ethoxy-2-(2-fluoro-4,6-dimethylphenyl)-2,5-dihydro-4H-pyrazolo[3,4-d]pyrimidin-4-one] | 98%
5 | CCCc1ccc(-n2nc3nc(OCC)[nH]c(=O)c3c2C)c(O)c1 [Example 80, 6-ethoxy-2-(2-hydroxy-4-propylphenyl)-3-methyl-2,5-dihydro-4H-pyrazolo[3,4-d]pyrimidin-4-one] | 99%
6 | CCOc1nc2nn(-c3c(F)cc(OC)cc3C(F)F)cc2c(=O)[nH]1 [Example 149, 2-[2-(difluoromethyl)-6-fluoro-4-methoxyphenyl]-6-ethoxy-2,5-dihydro-4H-pyrazolo[3,4-d]pyrimidin-4-one] | 99%
7 | COc1nc2nn(-c3c(OC)cc(C4CC4)cc3C(F)F)cc2c(=O)[nH]1 [Example 169, 2-[4-cyclopropyl-2-(difluoromethyl)-6-methoxyphenyl]-6-methoxy-2,5-dihydro-4H-pyrazolo[3,4-d]pyrimidin-4-one] | 103%
8 | Cc1cc(C2CC2)cc(C)c1-n1cc2c(=O)[nH]c(C(C)(C)O)nc2n1 [Example 172, 2-(4-cyclopropyl-2,6-dimethylphenyl)-6-(2-hydroxypropan-2-yl)-2,5-dihydro-4H-pyrazolo[3,4-d]pyrimidin-4-one] | 61%
9 | CCOc1nc2nn(-c3c(C)cc(C4CC4)nc3C)cc2c(=O)[nH]1 [Example 174, 2-(6-cyclopropyl-2,4-dimethylpyridin-3-yl)-6-ethoxy-2,5-dihydro-4H-pyrazolo[3,4-d]pyrimidin-4-one] | 108%
10 | CCOc1nc2nn(-c3c(F)cc(C4(F)CC4)cc3Br)cc2c(=O)[nH]1 [Example 178, 2-[2-bromo-6-fluoro-4-(1-fluorocyclopropyl)phenyl]-6-ethoxy-2,5-dihydro-4H-pyrazolo[3,4-d]pyrimidin-4-one] | 101%
11 | Cc1nc2nn(-c3c(C)cc(C4CC4)cc3C)cc2c(=O)[nH]1 [Example 180, 2-(4-cyclopropyl-2,6-dimethylphenyl)-6-methyl-2,5-dihydro-4H-pyrazolo[3,4-d]pyrimidin-4-one] | 99%
12 | Cc1cc(C2CC2)cc(C)c1-n1cc2c(=O)[nH]c(CC(C)(C)O)nc2n1 [Example 181, 2-(4-cyclopropyl-2,6-dimethylphenyl)-6-(2-hydroxy-2-methylpropyl)-2,5-dihydro-4H-pyrazolo[3,4-d]pyrimidin-4-one] | 103%
13 | CCOc1nc2nn(-c3ccc(C4(F)CC4)cc3F)cc2c(=O)[nH]1 [Example 183, 6-ethoxy-2-[2-fluoro-4-(1-fluorocyclopropyl)phenyl]-2,5-dihydro-4H-pyrazolo[3,4-d]pyrimidin-4-one] | 96%
14 | Cc1cc(Br)cc(C)c1-n1cc2c(=O)[nH]c(-c3ccncn3)nc2n1 [Example 185, 2-(4-bromo-2,6-dimethylphenyl)-6-(pyrimidin-4-yl)-2,5-dihydro-4H-pyrazolo[3,4-d]pyrimidin-4-one] | 114%
15 | Cc1nc2nn(-c3c(C)cc(Br)cc3C)cc2c(=O)[nH]1 [Example 187, 2-(4-bromo-2,6-dimethylphenyl)-6-methyl-2,5-dihydro-4H-pyrazolo[3,4-d]pyrimidin-4-one] | 97%
16 | Cc1cc(Br)cc(C)c1-n1cc2c(=O)[nH]c(C3(F)CC3)nc2n1 [Example 188, 2-(4-bromo-2,6-dimethylphenyl)-6-(1-fluorocyclopropyl)-2,5-dihydro-4H-pyrazolo[3,4-d]pyrimidin-4-one] | 99%
17 | Cc1cc(Br)cc(C)c1-n1cc2c(=O)[nH]c([C@H]3CC3(F)F)nc2n1 [Example 189, 2-(4-bromo-2,6-dimethylphenyl)-6-(2,2-difluorocyclopropyl)-2,5-dihydro-4H-pyrazolo[3,4-d]pyrimidin-4-one] | 99%
18 | Cc1ccc(-n2cc3c(=O)[nH]c(OCCCC(F)(F)F)nc3n2)c(C)c1 [Example 196, 2-(2,4-dimethylphenyl)-6-(4,4,4-trifluorobutoxy)-2,5-dihydro-4H-pyrazolo[3,4-d]pyrimidin-4-one] | 55%
19 | Cc1ccc(-n2cc3c(=O)[nH]c(OCCC(F)(F)F)nc3n2)c(C)c1 [Example 197, 2-(2,4-dimethylphenyl)-6-(3,3,3-trifluoropropoxy)-2,5-dihydro-4H-pyrazolo [3,4-d]pyrimidin-4-one] | 60%
20 | Cc1cc(C2CC2)cc(C)c1-n1cc2c(=O)[nH]c([C@@H]3CCOC3)nc2n1 [Example 201, 2-(4-cyclopropyl-2,6-dimethylphenyl)-6-(oxolan-3-yl)-2,5-dihydro-4H-pyrazolo [3,4-d]pyrimidin-4-one] | 99%
21 | CCOc1nc2nn(-c3c(F)cc(C4CC4)cc3CC(F)(F)F)cc2c(=O)[nH]1 [Example 206, 2-[4-cyclopropyl-2-fluoro-6-(2,2,2-trifluoroethyl)phenyl]-6-ethoxy-2,5-dihydro-4H-pyrazolo[3,4-d]pyrimidin-4-one] | 97%
22 | COc1nc2nn(-c3c(C)cc(C4CC4)cc3C(F)F)cc2c(=O)[nH]1 [Example 209, 2-[4-cyclopropyl-2-(difluoromethyl)-6-methylphenyl]-6-methoxy-2,5-dihydro-4H-pyrazolo[3,4-d]pyrimidin-4-one] | 103%
23 | COCCOc1nc2nn(-c3c(C)cc(C4CC4)cc3C(F)F)cc2c(=O)[nH]1 [Example 210, 2-[4-cyclopropyl-2-(difluoromethyl)-6-methylphenyl]-6-(2-methoxyethoxy)-2,5-dihydro-4H-pyrazolo[3,4-d]pyrimidin-4-one] | 101%
24 | Cc1cc(C2CC2)cc(C)c1-n1cc2c(=O)[nH]c(COCC(F)F)nc2n1 [Example 212, 2-(4-cyclopropyl-2,6-dimethylphenyl)-6-[(2,2-difluoroethoxy)methyl]-2,5-dihydro-4H-pyrazolo[3,4-d]pyrimidin-4-one] | 103%

Same assay, conditions: Homo sapiens, THP-1, 6 μM, LPS priming, ATP activation, read-out: IL-1β inhibitory rate at 6 μM (%)

Row | Compound | inhibition at 6 µM
25 | O=c1[nH]c(C2COCCO2)nc2nn(-c3c(F)cc(C4CC4)cc3C(F)F)cc12 (racemic) [Example 305, 2-[4-cyclopropyl-2-(difluoromethyl)-6-fluorophenyl]-6-(1,4-dioxan-2-yl)-2,5-dihydro-4H-pyrazolo[3,4-d]pyrimidin-4-one] | 103%

Same assay, conditions: Homo sapiens, THP-1, 10 μM, LPS priming, ATP activation, read-out: IL-1β inhibitory rate at 10 μM (%)

Row | Compound | inhibition at 10 µM
26 | Cc1cc(Br)cc(C)c1-n1cc2c(=O)[nH]c([C@@H](C)C(=O)O)nc2n1 [Example 170, 2-[2-(4-bromo-2,6-dimethylphenyl)-4-oxo-4,5-dihydro-2H-pyrazolo [3,4-d]pyrimidin-6-yl]propanoic acid] | 136%
